Like-named read-outs stand apart in the source and are kept apart here. Non-standard residues stand in square brackets, D forms with d. Residues, ends and D or L forms follow the SMILES beside them. *: point of attachment. dNMeF = CN[C@H](Cc1ccccc1)C(=O)O; Cha = N[C@@H](CC1CCCCC1)C(=O)O; NMeK = CN[C@@H](CCCCN)C(=O)O; dNMeK = CN[C@H](CCCCN)C(=O)O; ClZ = O=C(OCc1ccccc1Cl)*; Bn = c1ccc(C*)cc1
Key:
[1] = system: HCT-116 colon cancer cells; test: 3H-thymidine uptake cytotoxicity assay; format: cell-based
[2] = system: colon cancers; settings: drug of choice for colon cancer treatment; no reference given; cited from earlier work

Question: For `CC(C)C[C@@H]1NC(=O)[C@H](Cc2ccccc2)NC(=O)[C@H](CCCCN)N(C)C(=O)[C@H](CC(C)C)NC(=O)[C@H](C(C)C)NC1=O` [Compound 35, Phe-Leu-Val-Leu-N-Me-Lys] (cyclo(FLVL[NMeK])), which “cytotoxicity (in words)” value [1] is on record?
Answer: The value was “inactive”.

Question: Which “cytotoxicity (in words)” value [1] does the source give for `CC(C)C[C@@H]1NC(=O)[C@H](Cc2ccccc2)NC(=O)[C@@H](Cc2ccccc2)N(C)C(=O)[C@@H](CCCCNC(=O)OCc2ccccc2Cl)NC(=O)[C@H](C(C)C)NC1=O` [Compound 42, Phe-Leu-Val-D-Lys(Cl-Cbz)-N-Me-D-Phe] (cyclo(FLV[dK](ClZ)[dNMeF])) here?
Answer: Its value is “remarkable cytotoxicity”.

Question: Which “cytotoxicity (in words)” value [1] does the source give for `CC(C)C[C@@H]1NC(=O)[C@H](Cc2ccccc2)NC(=O)[C@H](CCCCN)NC(=O)[C@H](CC(C)C)NC(=O)[C@@H](C(C)C)NC1=O` [Compound 37, Phe-Leu-D-Val-Leu-Lys] (cyclo(FL[dV]LK)) here?
Answer: The value was “inactive”.

Question: With `CC(C)C[C@@H]1NC(=O)[C@H](C(C)C)NC(=O)[C@@H](Cc2ccccc2)N(C)C(=O)[C@H](Cc2ccccc2)NC(=O)[C@H](CCCCN)NC1=O` [Compound 30, Phe-N-Me-D-Phe-Val-Leu-Lys] (cyclo(F[dNMeF]VLK)) as the molecule, how does the “cytotoxicity (in words)” value [1] read?
Answer: Its value is “not active”.

Question: Which IC50 [2] does the source give for `O=c1[nH]cc(F)c(=O)[nH]1` [Compound 5-FU, 5-fluorouracil] here?
Answer: Its IC50 is 5 µM.

Question: Which “cytotoxicity (in words)” value [1] does the source give for `CC(C)[C@H]1NC(=O)[C@@H](Cc2ccccc2)NC(=O)[C@H](Cc2ccccc2)NC(=O)[C@H](COCc2ccccc2)NC(=O)[C@H](CC2CCCCC2)NC1=O` [Compound 20, Phe-D-Phe-D-Val-Cha-Ser(Bn)] (cyclo([Cha]S(Bn)F[dF][dV])) here?
Answer: The value was “little cytotoxic activity”.

Question: With `CC(C)[C@H]1NC(=O)[C@@H](Cc2ccccc2)N(C)C(=O)[C@H](Cc2ccccc2)NC(=O)[C@H](COCc2ccccc2)NC(=O)[C@H](CC2CCCCC2)NC1=O` [Compound 19, Phe-N-Me-D-Phe-D-Val-Cha-Ser(Bn)] (cyclo([Cha]S(Bn)F[dNMeF][dV])) as the molecule, how does the half-life (Half-life (minutes) n1, n1) read?
Answer: Its half-life is 45 min.

Question: What about the half-life (Half-life (minutes) n2, n2) of the same molecule?
Answer: Its half-life is 30 min.

Question: Which “cytotoxicity (in words)” value [1] does the source give for `CC(C)C[C@@H]1NC(=O)[C@H](Cc2ccccc2)NC(=O)[C@H](CCCCN)NC(=O)[C@H](CC(C)C)NC(=O)[C@H](C(C)C)NC1=O` [Compound 32, Phe-Leu-Val-Leu-Lys] (cyclo(FLVLK)) here?
Answer: The value was “inactive”.

Question: Which “cytotoxicity (in words)” value [1] does the source give for `CC(C)C[C@@H]1NC(=O)[C@H](Cc2ccccc2)NC(=O)[C@@H](Cc2ccccc2)NC(=O)[C@@H](CCCCNC(=O)OCc2ccccc2Cl)N(C)C(=O)[C@H](C(C)C)NC1=O` [Compound 41, Phe-Leu-Val-N-Me-D-Lys(Cl-Cbz)-D-Phe] (cyclo(FLV[dNMeK](ClZ)[dF])) here?
Answer: Its value is “not very potent at all”.

— paper PMC2933939 (Bioorganic & medicinal chemistry, 2010)
